Test [1] addresses T1, RHOGDI1-RAC1 interaction (Homo sapiens, UniProt P52565).
T1 construct: GST; made in house; host or cells: RHOGDI1: E. coli; GerGer-RAC1: insect cells (TNAO38)
T1 sequence (P52565 1-204): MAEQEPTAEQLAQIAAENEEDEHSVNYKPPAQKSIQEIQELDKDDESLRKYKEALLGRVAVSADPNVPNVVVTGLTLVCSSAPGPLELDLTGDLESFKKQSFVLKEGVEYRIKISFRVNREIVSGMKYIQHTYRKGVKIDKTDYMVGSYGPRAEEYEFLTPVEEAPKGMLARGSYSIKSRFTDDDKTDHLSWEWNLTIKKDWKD
The test can be described thus: Fluorescence polarization: titration of TAMRA-GDP-bound RAC1 with RHOGDI1 in presence of compound. The test is classed as binding. The following applies: Cheng-Prusoff equation using data from Figure S6f. The method, then: cilia were stained with an antibody against acetylated tubulin. SMO was marked with an anti-SMO antibody and DAPI was used to stain the nuclei. For quantification of cilia, at least 100 cilia per condition and biological replicate were analyzed for the intensity of anti-acetylated tubulin antibody staining. The results of one representative biological replicate are shown and each data point represents the intensity value of one single cilium. Statistical significance was evaluated using an unpaired t-test with a confidence interval of 95 % (p ≤ n.s.). […]
Label-free quantification (LFQ) intensities were logarithmized (log2) and proteins, which were not three times quantified in at least one of the groups, were filtered off. […]
Fluorescence polarization
The binding of probe 10 to RHOGDI1-3 was confirmed by fluorescence polarization experiments. […] The change in fluorescence polarization was monitored at an excitation / emission wavelengths of 535 nm and 593 nm, respectively. […]
To determine the effect of 7a on the binding of RHOGDI1 to non-prenylated RAC1-GDP, fluorescence polarization measurements were performed by titrating 1 µM TAMRA-GDP-bound RAC1 with increasing concentrations of RHOGDI1 in the presence and absence of 50 µM 7a in buffer containing 30 mM Tris-HCl, pH 7.5, 150 mM NaCl, 5 mM MgCl2, 1% DMSO. […]

Test [2] deals with NIH/3T3 cells. Briefly: Detection of cilia (acetylated tubulin staining). In kind it is cell-based. The method, then: Supplementary Figure S6 (related to Figure 5). Characterization of compound 7l (Rhonin).
(a) GLI-responsive reporter gene assay in SHH-LIGHT2 cells. (b) Influence of Rhonin on the expression of Alpl. C3H10T1/2 cells were treated with 1.5 µM purmorphamine and the compounds for 96 h prior to RT-qPCR to detect Alpl mRNA levels. Data were normalzed to Gapdh and Ap3d1 gene levels and are mean values (n = 3) ± SD. (c) Detection of cilia in NIH/3T3 cells. NIH/3T3 cells were cultured in serum reduced (0.5 % FCS) medium for 24 h to induce cilia formation, followed by a pre-treatment of cells with different concentrations of 7l or Vismodegib or DMSO as a control in serum reduced medium. After another 24h cells were treated with 2 µM purmorphamine or DMSO as a control and with different concentrations of 7l, or Vismodegib or DMSO as a control for 24 h. […]
cilia were stained with an antibody against acetylated tubulin. SMO was marked with an anti-SMO antibody and DAPI was used to stain the nuclei. For quantification of cilia, at least 100 cilia per condition and biological replicate were analyzed for the intensity of anti-acetylated tubulin antibody staining. […] Statistical significance was evaluated using an unpaired t-test with a confidence interval of 95 % (p ≤ n.s.). […]

We go through 1 compound from paper PMC9313812, “The Pseudo‐Natural Product Rhonin Targets RHOGDI” (Angewandte Chemie (International Ed. in English), 2022).

For orientation: Ki means the dissociation constant of the complex between target and ligand, obtained from inhibition or displacement.

With `COC(=O)C1(C(CC(=O)c2cccnc2)c2ccccc2)N=C(c2ccc(Br)cc2)C2C(=O)N(C)C(=O)C21` (centres unmarked) [7l], the Ki in test [1] was roughly 2200 nM. Moreover, the “Cilia formation (in words)” value in test [2] was “cilia formation was not affected”.
